Values after ≈ are worked out from the molar mass of the structure shown. Like-named read-outs stand apart in the source and are kept apart here.
Experiments:
[1] = system: Mouse P388 leukemia cells; assay: Cytotoxicity Testing: 50% growth-inhibiting concentration, MTT method; type: cell-based; settings: read-out: in vitro IC50 (50% growth-inhibiting concentration)
Procedure: Mouse P388 leukemia cells were used as cancer cells for this test. The cancer cells were incubated in RPMI-1640 medium containing 5 μM 2-mercaptoethanol and 10% fetal calf serum. More specifically, the cancer cells were seeded in a 96-well microplate in an amount of 1×10^4cell/50 μl/well, 25 μl/well of an aqueous solution of the test compound mentioned below (4 μg/ml) were added to each well, and the cells were incubated therein for 2 days at 37° C. After the incubation, the number of the living cells was counted using the MTT method and a dose-reaction curve was formed from the counted data. Based on the curve, the 50% growth-inhibiting concentration (IC50) of the test compound was calculated. As a comparative compound, Combretastatin A-4 was used.

Colon 26 = assay: Evaluation of Antitumor Activity: Colon 26 inoculated sc into CD2F1 mice; type: in vivo; settings: tumor volume 21 days after the day of administration
Procedure: Colon 26 was inoculated sc into CD2F1 mice. After a week, the size of the tumor was measured and the volume of the tumor was calculated. Mice were selected on the basis of the volume of the tumor and administration of drug was begun. Twenty-one days after the day of administration, the size of the tumor was measured and the volume of the tumor was calculated. The inhibition ratio of growth of tumor (I.R.) was calculated as shown below. I.R.(%)={1-(Average Tumor Volume of Treated Mice)/(Average Tumor Volume of Control Mice)}×100

[2] = Solubility in phosphate buffer (pH 7.0), HPLC of supernatant; type: physicochemical
Procedure: An excess amount of each sample was dissolved in 0.1 ml of phosphate buffer (PH 7.0). The mixture was sonicated and centrifuged. The supernatant was subjected to HPLC and the solubility was measured.

[3] = 48 h, mouse P388 leukemia cells, 2 days at 37° C., MTT method
[4] = aqueous buffer, pH 7.0, read-out: Solubility in Phosphate Buffer (PH 7.0)
[5] = 40 mg/day, once a day on day 1, day 5 and day 7, perorally
[6] = 40 mg/day, once a day on day 1, day 5 and day 7, intravenously

In the case of COc1cc(/C(C#N)=C\c2ccc(Cl)c(N)c2)cc(OC)c1OC [(E)-3-(3-amino-4-chlorophenyl)-2-(3,4,5-trimethoxyphenyl)-prop-2-ene-nitrile], the IC50 [1, 3] is reported as 1.8 ng/mL (≈ 0.00522 µM) and the “in vivo I.R. (inhibition ratio of growth of tumor)” value (Colon 26; 80 mg/day, once a day on day 1, day 5 and day 7, perorally) is reported as 23.7%.
For COc1ccc(/C=C(/C#N)c2cc(OC)c(OC)c(OC)c2)cc1N [(E)-3-(3-amino-4-methoxyphenyl)-2-(3,4,5-trimethoxyphenyl)-prop-2-ene-nitrile], the solubility [2, 4] was 1700 µg/mL (≈ 4990 µM), the IC50 [1, 3] was 0.2 ng/mL (≈ 0.000588 µM) and the “in vivo I.R. (inhibition ratio of growth of tumor)” value (Colon 26; 10 mg/day, once a day from day 1 to day 10, intravenously) was 83.4%.
With COc1cc(/C(C#N)=C\c2ccc(C)c(N)c2)cc(OC)c1OC [(E)-3-(3-amino-4-methylphenyl)-2-(3,4,5-trimethoxyphenyl)-prop-2-ene-nitrile] the IC50 [1, 3] was 2 ng/mL (≈ 0.00617 µM) and the “in vivo I.R. (inhibition ratio of growth of tumor)” value (Colon 26; [5]) was 41.0%.
With COc1ccc(/C=C\c2cc(OC)c(OC)c(OC)c2)cc1N [(Z)-1-(3-Amino-4-methoxyphenyl)-2-(3,4,5-trimethoxyphenyl)ethene] the solubility [2, 4] was 34000 µg/mL (≈ 108000 µM), the IC50 [1, 3] was 0.2 ng/mL (≈ 0.000634 µM) and the “in vivo I.R. (inhibition ratio of growth of tumor)” value (Colon 26; [6]) was 69.5%.
Work on COc1cc(/C=C\c2ccc(Cl)c(N)c2)cc(OC)c1OC [(Z)-1-(3-amino-4-chlorophenyl)-2-(3,4,5-trimethoxyphenyl)ethene] yielded an IC50 ([1]; Mus musculus, P388, 48 h) of 20 ng/mL (≈ 0.0625 µM).
For COc1cc(/C=C\c2ccc(C)c(N)c2)cc(OC)c1OC [(Z)-1-(3-amino-4-methylphenyl)-2-(3,4,5-trimethoxyphenyl)ethene], the IC50 ([1]; Mus musculus, P388, 48 h) was 3.5 ng/mL (≈ 0.0117 µM) and the “in vivo I.R. (inhibition ratio of growth of tumor)” value (Colon 26; [6]) was 61.6%.
With COc1ccc(/C=C\c2cc(OC)c(OC)c(OC)c2)cc1O [Combretastatin A-4, reference compound] the solubility ([2]; pH 7, aqueous buffer) was < 100 µg/mL, the IC50 [1, 3] was 0.2 ng/mL (≈ 0.000632 µM) and the “in vivo I.R. (inhibition ratio of growth of tumor)” value (Colon 26; [5]) was 4.6%.

— patent US5731353A, “Stilbene derivatives and pharmaceutical compositions containing them” (Ajinomoto Co., Inc., priority 1993, dated 1998)
